# Laboratory results: patent publication US20080318939A1, “METHODS FOR TREATING OPHTHALMIC DISORDERS” (priority 2007, published 2008)
# Assays:
# leukemia cells = experiment: inhibition of proliferation of leukemia cells; type: cell-based; settings: cells associated with a cell proliferation condition
# normal bone marrow cells = experiment: inhibition of proliferation of normal bone marrow cells; type: cell-based; settings: specificity
# [1] = permeation of the blood-brain barrier
Compound,inhibition of leukemia cells (leukemia cells),inhibition of normal bone marrow cells (normal bone marrow cells),blood-brain barrier permeation [1]
CN1CCCC1CCNC(=O)c1cn2c3c(c(N4CCC(c5cnccn5)C4)c(F)cc3c1=O)Oc1cc3ccccc3cc1-2 (stereo not drawn) [TA1-1A],inhibits leukemia cells,without inhibiting normal bone marrow cells,–
CC(=O)N1CCN(c2nc3c(cc2F)c(=O)c(C(=O)NCCN2CCCC2)c2n(C)c4ccccc4n32)CC1 [TA4-1 A],–,–,significantly permeates the blood-brain barrier
